Laboratory results taken from patent US20140303260A1, “PHARMACEUTICAL COMPOSITIONS OF RESVERATROL” (NAD Life Pty Ltd, priority 2011, published 2014).

Assays:
[1] = cited from earlier work
blood NAD levels = test: NAD levels in a test group of subjects after administration of resveratrol, buccal/sublingual composition versus oral; assay type: in vivo, human
Method: A 35% increased blood NAD level was sustained at 4 hrs compared to baseline. […] The comparison of the effect on NAD levels between oral administration of resveratrol and buccal/sublingual membrane administration of resveratrol is best shown in FIG. 3. This graph depicts the difference in the change in a subject's NAD levels (in ng/mL) when resveratrol is administered orally (absorption through the gastrointestinal tract) compared to when resveratrol is administrated by the pharmaceutical composition of the present invention (absorption through the buccal/sublingual membranes).

Q: With `Oc1ccc(C=Cc2cc(O)cc(O)c2)cc1` [resveratrol] as the compound, how does the “solubility in aqueous solutions” value [1] read?
A: almost insoluble

Q: And the “increase in blood NAD levels” value (blood NAD levels; absorption through buccal/sublingual membranes (FIG. 1), at 1 hr (60 min))?
A: 41%

Q: What about the “increased blood NAD level sustained compared to baseline” value (blood NAD levels; absorption through buccal/sublingual membranes, at 4 hrs) of the same compound?
A: 35%

Q: And the “change in blood NAD levels” value (blood NAD levels; delivered via powdered slurry (gastrointestinal absorption alone))?
A: No observable change

Q: And the “level of NAD after oral administration” value (blood NAD levels; oral, absorbed through the gastrointestinal tract (FIG. 2), in only some of the people in the group)?
A: only a mild increase
